Results from publication PMC4363092 (Journal of medicinal chemistry, 2014).
“And” between values parts separate entries of the source, which are not always exact repeats. Equal values may be shown once. “Also recorded” adds a separate entry of the source. Read-outs that look alike come from different tables or passages of the source.

Tests used:
human NTPDase1 = biological target: T1, human NTPDase1 (Homo sapiens, UniProt P49961); conditions: analogue 100 μM as substrate; activity with 100 μM ATP set as 100%
T1 sequence (P49961 1-510): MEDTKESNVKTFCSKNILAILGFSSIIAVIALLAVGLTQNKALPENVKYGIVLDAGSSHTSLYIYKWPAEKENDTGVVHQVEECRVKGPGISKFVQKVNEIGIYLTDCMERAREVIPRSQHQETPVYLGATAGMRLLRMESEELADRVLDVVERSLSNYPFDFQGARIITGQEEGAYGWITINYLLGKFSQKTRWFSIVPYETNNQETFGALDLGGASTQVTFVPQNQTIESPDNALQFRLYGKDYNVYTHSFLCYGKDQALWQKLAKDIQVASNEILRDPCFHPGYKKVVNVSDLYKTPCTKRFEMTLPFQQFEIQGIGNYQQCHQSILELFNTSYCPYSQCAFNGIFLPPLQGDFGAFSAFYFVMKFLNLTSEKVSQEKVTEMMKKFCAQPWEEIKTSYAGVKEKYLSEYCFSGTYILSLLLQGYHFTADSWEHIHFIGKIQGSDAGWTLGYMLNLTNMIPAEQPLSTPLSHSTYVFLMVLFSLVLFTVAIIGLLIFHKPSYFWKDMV

P2Y11 receptor [1] = biological target: T2, P2Y11 receptor (Homo sapiens, UniProt Q96G91); test: [Ca2+]i elevation in 1321N1 astrocytoma cells expressing GFP-P2Y11 receptor; type: cell-based; conditions: for potency relative to ATP at the P2Y11 receptor: more potent than ATP
T2 sequence (Q96G91 1-374): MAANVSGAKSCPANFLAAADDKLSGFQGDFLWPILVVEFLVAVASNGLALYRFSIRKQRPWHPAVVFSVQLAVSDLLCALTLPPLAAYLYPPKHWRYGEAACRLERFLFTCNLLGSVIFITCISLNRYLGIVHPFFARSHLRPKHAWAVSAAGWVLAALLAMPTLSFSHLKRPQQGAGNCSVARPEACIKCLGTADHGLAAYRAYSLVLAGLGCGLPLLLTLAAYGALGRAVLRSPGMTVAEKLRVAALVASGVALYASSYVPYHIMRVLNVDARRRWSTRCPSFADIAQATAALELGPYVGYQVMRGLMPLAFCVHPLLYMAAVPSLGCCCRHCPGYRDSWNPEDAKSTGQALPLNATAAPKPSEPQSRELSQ

human NTPDase2 = biological target: T3, human NTPDase2 (Homo sapiens, UniProt Q9Y5L3); conditions: analogue 100 μM as substrate; activity with 100 μM ATP set as 100%
T3 sequence (Q9Y5L3 1-495): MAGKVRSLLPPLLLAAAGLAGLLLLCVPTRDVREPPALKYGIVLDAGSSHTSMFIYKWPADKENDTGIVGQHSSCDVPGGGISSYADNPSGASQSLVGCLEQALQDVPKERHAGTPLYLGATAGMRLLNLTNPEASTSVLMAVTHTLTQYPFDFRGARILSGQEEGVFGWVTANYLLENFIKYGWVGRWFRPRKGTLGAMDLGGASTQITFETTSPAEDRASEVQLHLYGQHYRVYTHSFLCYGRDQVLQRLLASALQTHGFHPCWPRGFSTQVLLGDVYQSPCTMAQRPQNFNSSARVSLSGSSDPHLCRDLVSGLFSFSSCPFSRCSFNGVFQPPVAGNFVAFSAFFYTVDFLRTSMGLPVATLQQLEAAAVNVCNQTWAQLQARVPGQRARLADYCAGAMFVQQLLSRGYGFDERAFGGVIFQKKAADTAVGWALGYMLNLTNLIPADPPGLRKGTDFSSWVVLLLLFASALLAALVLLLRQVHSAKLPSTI

human NPP1 = biological target: T4, human NPP1 (Homo sapiens, UniProt P22413); test: Inhibition of NPP1, pNP-TMP as substrate; type: biochemical; conditions: Dixon and Cornish–Bowden methods
T4 sequence (P22413 1-925): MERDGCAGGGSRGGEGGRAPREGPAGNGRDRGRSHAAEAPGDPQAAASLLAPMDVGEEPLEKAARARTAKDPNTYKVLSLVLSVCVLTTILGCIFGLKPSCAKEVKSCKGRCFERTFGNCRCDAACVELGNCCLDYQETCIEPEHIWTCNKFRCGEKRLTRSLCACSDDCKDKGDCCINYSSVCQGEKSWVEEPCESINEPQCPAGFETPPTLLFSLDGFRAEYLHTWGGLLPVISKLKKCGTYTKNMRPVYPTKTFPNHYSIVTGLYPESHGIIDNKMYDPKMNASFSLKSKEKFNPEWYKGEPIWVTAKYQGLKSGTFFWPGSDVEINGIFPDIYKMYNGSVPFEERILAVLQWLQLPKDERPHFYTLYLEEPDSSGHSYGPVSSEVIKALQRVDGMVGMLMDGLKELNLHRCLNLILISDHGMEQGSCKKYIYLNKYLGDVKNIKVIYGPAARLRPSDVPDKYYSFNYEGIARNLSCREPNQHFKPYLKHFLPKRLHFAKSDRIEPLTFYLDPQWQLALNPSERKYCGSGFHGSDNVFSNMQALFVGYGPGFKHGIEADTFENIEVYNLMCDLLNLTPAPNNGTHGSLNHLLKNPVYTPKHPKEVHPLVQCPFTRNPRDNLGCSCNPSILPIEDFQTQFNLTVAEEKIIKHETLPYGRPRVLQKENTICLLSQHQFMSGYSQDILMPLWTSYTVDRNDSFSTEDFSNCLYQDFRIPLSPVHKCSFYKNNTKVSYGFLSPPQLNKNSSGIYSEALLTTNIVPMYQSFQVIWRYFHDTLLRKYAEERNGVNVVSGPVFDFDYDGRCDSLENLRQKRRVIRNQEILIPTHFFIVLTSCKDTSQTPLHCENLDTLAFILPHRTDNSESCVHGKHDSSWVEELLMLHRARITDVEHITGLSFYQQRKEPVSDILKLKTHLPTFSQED

human NTPDase8 = biological target: T5, human NTPDase8 (Homo sapiens, UniProt Q5MY95); conditions: analogue 100 μM as substrate; activity with 100 μM ATP set as 100%
T5 sequence (Q5MY95 1-495): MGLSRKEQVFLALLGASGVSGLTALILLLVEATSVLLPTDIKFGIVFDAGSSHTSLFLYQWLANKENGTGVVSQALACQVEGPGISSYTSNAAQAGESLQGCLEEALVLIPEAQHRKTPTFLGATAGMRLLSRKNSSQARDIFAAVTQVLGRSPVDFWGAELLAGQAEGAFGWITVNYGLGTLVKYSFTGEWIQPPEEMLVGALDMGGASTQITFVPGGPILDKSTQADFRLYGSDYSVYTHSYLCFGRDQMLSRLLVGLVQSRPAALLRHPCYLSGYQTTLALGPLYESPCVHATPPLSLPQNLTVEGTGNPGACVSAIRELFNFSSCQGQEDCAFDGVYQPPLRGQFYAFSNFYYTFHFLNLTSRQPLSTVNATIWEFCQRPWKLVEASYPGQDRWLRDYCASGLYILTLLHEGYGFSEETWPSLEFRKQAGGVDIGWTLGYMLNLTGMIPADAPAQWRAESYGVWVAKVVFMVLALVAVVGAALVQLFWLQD

human NTPDase1,2,3,8 = test: Inhibition of NTPDase activity, text statements pooled over NTPDase1,2,3,8; type: biochemical; conditions: analogue 100 μM, pooled over four NTPDases
human NTPDase3 = biological target: T6, human NTPDase3 (Homo sapiens, UniProt O75355); conditions: analogue 100 μM as substrate; activity with 100 μM ATP set as 100%
T6 sequence (O75355 1-529): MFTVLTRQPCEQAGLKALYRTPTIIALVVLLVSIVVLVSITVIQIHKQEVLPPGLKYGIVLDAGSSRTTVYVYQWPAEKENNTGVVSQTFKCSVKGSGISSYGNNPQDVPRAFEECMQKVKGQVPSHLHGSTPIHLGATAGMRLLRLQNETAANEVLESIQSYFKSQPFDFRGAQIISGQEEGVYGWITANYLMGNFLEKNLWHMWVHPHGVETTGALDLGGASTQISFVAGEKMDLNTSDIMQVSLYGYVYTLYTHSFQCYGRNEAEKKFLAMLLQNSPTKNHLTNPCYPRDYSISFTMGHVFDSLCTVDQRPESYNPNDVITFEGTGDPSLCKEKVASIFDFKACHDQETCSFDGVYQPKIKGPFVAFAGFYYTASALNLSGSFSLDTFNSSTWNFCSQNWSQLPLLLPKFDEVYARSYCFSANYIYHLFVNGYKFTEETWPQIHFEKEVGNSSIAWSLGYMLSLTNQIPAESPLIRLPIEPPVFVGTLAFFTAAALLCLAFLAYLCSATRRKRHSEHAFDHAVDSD

P2Y11 receptor [2] = conditions: cited from earlier work; for potency relative to ATP at the P2Y11 receptor: higher potency than ATP
NPP1 = conditions: cited from earlier work; for Ki: read-out: Ki, NPP1

| SMILES | relative activity (%) ± SD of ATP hydrolysis, NTPDase1 (human NTPDase1) | relative activity (%) ± SD of ATP hydrolysis, NTPDase2 (human NTPDase2) | relative activity (%) ± SD of ATP hydrolysis, NTPDase8 (human NTPDase8) | inhibition of ATP hydrolysis by NTPDase1,2,3,8 (human NTPDase1,2,3,8) | relative activity (%) ± SD of ATP hydrolysis, NTPDase3 (human NTPDase3) | also measured |
| --- | --- | --- | --- | --- | --- | --- |
| Nc1ncnc2c1ncn2[C@@H]1O[C@H](CO[P@@](O)(=S)OP(=O)(O)C(Cl)(Cl)P(=O)(O)O)[C@@H](O)[C@H]1O [2b] | 5.4 ± 0.2% | 5.5 ± 0.2% | 5.3 ± 0.2% | did not interfere | 5.4 ± 0.2% | EC50 (P2Y11 receptor [1]): 3 ± 1.46 µM; potency relative to ATP at the P2Y11 receptor (P2Y11 receptor [1]): 2 fold and ~ 2 fold; type of inhibition (human NPP1): mixed-type inhibition, predominantly competitive |
| CCCSc1nc(N)c2ncn([C@@H]3O[C@H](COP(O)(=S)OP(=O)(O)C(Cl)(Cl)P(=O)(O)O)[C@@H](O)[C@H]3O)c2n1 (single isomer, unassigned; isomer a) [2-(propylthio)adenosine 5′-α-thio-β,γ-(dichloromethylene)-triphosphate, isomer A, 2-(propylthio)adenosine 5′-α-thio-β,γ-(dichloromethylene)-triphosphate] | – | – | – | – | – | potency relative to ATP at the P2Y11 receptor (P2Y11 receptor [2]): ~ 3 fold |
| Nc1ncnc2c1ncn2[C@@H]1O[C@H](CO[P@@](O)(=S)OP(=O)(O)CP(=O)(O)O)[C@@H](O)[C@H]1O [1b] | 5.4 ± 0.2% | 5.5 ± 0.3% | 5.3 ± 0.2% | did not interfere | 4.8 ± 0.2% | potency relative to ATP at the P2Y11 receptor (P2Y11 receptor [1]): 7 fold and ~ 7 fold; type of inhibition (human NPP1): mixed-type inhibition, predominantly competitive |
| Nc1ncnc2c1ncn2[C@@H]1O[C@H](CO[P@](O)(=S)OP(=O)(O)CP(=O)(O)O)[C@@H](O)[C@H]1O [1a] | 4.4 ± 0.2% | 4.7 ± 1.7% | 4.4 ± 0.2% | did not interfere | 4.2 ± 0.2% | EC50 ± SEM (μM), [Ca^2+]i elevation, P2Y11 (P2Y11 receptor [1]; 1321N1 cells, nr = no response up to 10 μM): not agonists; also recorded: inactive; also recorded: not active, nr ^c |
| CCCSc1nc(N)c2ncn([C@@H]3O[C@H](COP(O)(=S)OP(=O)(O)C(Cl)(Cl)P(=O)(O)O)[C@@H](O)[C@H]3O)c2n1 (single isomer, unassigned; isomer b) [2-(propylthio)adenosine 5′-α-thio-β,γ-(dichloromethylene)-triphosphate, isomer B, 2-(propylthio)adenosine 5′-α-thio-β,γ-(dichloromethylene)-triphosphate] | – | – | – | – | – | potency relative to ATP at the P2Y11 receptor (P2Y11 receptor [2]): ~ 4 fold |
| Nc1ncnc2c1nc(S)n2[C@@H]1O[C@H](COP(=O)(O)OP(=O)(O)OP(=O)(O)O)[C@@H](O)[C@H]1O [compound 4] | 43 ± 2% | 73 ± 2% | 73 ± 1% | – | 51 ± 3% | – |
| Nc1ncnc2c1ncn2[C@@H]1O[C@H](CO[P@](=O)(O)O[P@](=O)(O)O[P@@](=O)(O)S)[C@@H](O)[C@H]1O [ATP-γ-S] | – | – | – | – | – | pEC50, P2Y11 receptor (P2Y11 receptor [2]): 5.52 |
| BP(=O)(OC[C@H]1O[C@@H](n2cnc3c(N)ncnc32)[C@H](O)[C@@H]1O)OP(=O)(O)CP(=O)(O)O (single isomer, unassigned; isomer a) [adenosine 5′-α-borano-β,γ-methylenetriphosphate (isomer A), adenosine 5′-α-borano-β,γ-methylenetriphosphate] | – | – | – | – | – | Ki (NPP1; ref 22 (b65 prints ref 44)): 0.5 µM |
| Nc1ncnc2c1ncn2[C@H]1C[C@H](O)[C@@H](COP(=O)(O)CP(=O)(O)OP(=O)(O)OP(=O)(O)CP(=O)(O)OC[C@H]2O[C@@H](n3cnc4c(N)ncnc43)C[C@@H]2O)O1 [bis(2′-deoxyadenosine) α,β:δ,ε-dimethylenepentaphosphonate] | – | – | – | – | – | IC50 (NPP1; read-out: IC50, NPP1): 13 µM; Ki (NPP1): 9 µM |
